Literature values in US20230033410A1, “COMPLEX FORMULATION COMPRISING SITAGLIPTIN AND DAPAGLIFLOZIN, AND PREPARATION METHOD THEREFOR” (HANMI PHARM. CO.,LTD., priority 2019, published 2023).
Read-outs that look alike come from different tables or passages of the source.

Conditions: plasma

Row | Tmax (range in brackets) [h] | Tmax (stated for both drugs) | Structure (SMILES)
1 | 1 to 2 | about 1 hour | CCOc1ccc(Cc2cc([C@@H]3O[C@H](CO)[C@@H](O)[C@H](O)[C@H]3O)ccc2Cl)cc1 [dapagliflozin, (2S,3R,4R,5S,6R)-2-[4-chloro-3-(4-ethoxybenzyl)phenyl]-6-(hydroxymethyl)tetrahydro-2H-pyran-3,4,5-triol]
2 | 1 to 4 | about 1 hour | N[C@@H](CC(=O)N1CCn2c(nnc2C(F)(F)F)C1)Cc1cc(F)c(F)cc1F [sitagliptin, (R)-3-amino-1-(3-(trifluoromethyl)-5,6-dihydro-[1,2,4]triazolo[4,3-a]pyrazin-7(8H)-yl)-4-(2,4,5-trifluorophenyl)butan-1-one]
